“Also recorded” adds a separate entry of the source. Counter-ions that a name gives are not always drawn. Like-named read-outs stand apart in the source and are kept apart here. Each block holds one compound with its values, some of them ahead of it.
Tests used:
[1] = pKa values quoted for buffers (buffer combinations table); assay type: physicochemical; conditions: for pKa of buffer in cationic/anionic buffer combinations / pKa: 25° C., ionic-strength 0.10 unless otherwise specified (b6); for pKa: aqueous solution, read-out: pKa of buffer in cationic/anionic buffer combinations
From the text: pH is a measurement of solvated hydrogen-ion activity, which is directly related to hydrogen ion concentration: −log [H^+]. […] Activity is a defined thermodynamic term and is related to concentration. At low concentration and low ionic-strength, activity approximately equals concentration. […] Such pKa values are more applicable to practical conditions than are thermodynamic pKa values where μ≈0. […] Initially, approximately equal concentrations are chosen.

[2] = Est. pKa of Table 1 compounds (approximate measurements of pKa-values); assay type: physicochemical; conditions: for pKa: aqueous 80 mM KCl solution (pH titration with 100 mM KOH)
Protocol: This method is used when nonreactive impurities are >5% (HPLC), when reactive impurities are >1% (HPLC), when insufficient buffer is available or when noticeably poor curve fitting is seen in the above method. The experimental method is nearly the same as the above method, but the experimental volume-pH data are processed differently. Usually, only one or two titrations are carried out. The pKa is estimated to be the same as the pH of the titration curve at the half-equivalence point. The estimated pKa values can be as good at ±0.1 or as poor as ±0.5 depending on the nature and amounts of impurities.

[3] = Change in pKa of amine caused by proximal quaternary ammonium group; assay type: physicochemical
From the text: The presence of a quaternary ammonium (quat) group in a molecule that also contains an amine group will reduce the pKa of the amine as measured in aqueous media and polar nonaqueous media. […] All three effects as described will generally lead to some reduction of observed pKa in the molecule of interest. […] The amount of reduction in pKa depends on (1) the number of quat groups, (2) the distance of the quat group(s) from the amine and (3) the rigidity of the molecule that holds the quat group and amine in more fixed position with regard to each other.

[4] = tested on: Escherichia coli, Pseudomonas fluorescens, Pichia pastoris, Saccharyomyces cerevisiae; test: Microbial growth-inhibition assays, all four organisms; assay type: cell-based; conditions: for comparative growth behaviour between buffers: all four organisms, pH 7.0; for order of growth inhibition at higher concentrations: standard buffers
Protocol: (§1) Microbial growth inhibition assays are carried out 96-well plates with well volume of 400 μL. In the present inventors' hands, data obtained in this manner are almost equivalent to that obtained in traditional shake flasks while data collection is more accurate and convenient. Two calibrated plate readers are used so that two plates, corresponding to a single organism, could be read at the same time. Each plate contains 80 cells for one organism and four buffers each at five concentrations (25, 50, 100, 225, 500 mM) with each buffer-concentration combination (20) being replicated four-fold. Each of these cells contained 50 μL of a fresh, calibrated cell culture plus 250 μL fresh sterile cell culture. In addition, each plate contained eight identical cells with 250 μL sterile, buffer-free growth medium plus 50 μL fresh cell culture and eight cells with 300 μL sterile growth medium and no organism. Microbial growth is measured by light-scattering/absorbance measurements at 600 nm every 15-60 minutes for the prescribed period. Every 15 minutes, each plate undergoes agitation/vibration which resuspends the organisms and promotes aeration; this process is repeated just prior to each absorbance reading. For each medium, six bottles of sterile media are prepared, one for each buffer concentration (0, 30, 60, 120, 270, 600 mM) so that when each is diluted in the plate, the desired concentrations will be obtained. The media components (see below), added buffer and water are mixed, and the pH is adjusted to the proper value. Each bottle of medium is heat sterilized (121° C., 15 psig, 20 minutes), cooled and, if necessary, the pH is readjusted to the proper value in a sterile fashion with 37% HCl or 50% NaOH.
Based upon prior experience with these organisms, a series of microbial growth measurements are carried out to determine optimal growth conditions. Four different media compositions unique to each organism each at four pH values (6.0, 6.5, 7.0, 7.5) are measured at three temperatures (23° C., 30° C., 37° C.). Fortunately, combinations of near optimal growth conditions have been found so that the same pH of 7.0±0.1 could be used for all four organisms that are listed below:
Compositions of growth media are listed below for one liter of medium. pH is adjusted to 7.0±0.1 both before and after heat sterilization. Similar growth results are obtained when the added cationic buffer is added before heat-sterilization and after heat-sterilization via sterile filtration. Several useful growth media containing methanol are known for Pichia, but ME broth is equally good under the current conditions, and then evaporation of methanol is not a problem. Amounts below are given as g/L in sterilized growth medium.
(§2) The bacterial and yeast strains are grown up and counted several times in each respective growth medium obtain fresh, stable, reproducible cultures of known density as a function of time. Microbial counting is carried out in the usual fashion by using serial dilutions followed by plate counting. Each culture is diluted and plated three times, and the values are averaged. When a culture reaches the proper microbial density (cfu/mL), two 96-well plates are quickly loaded as described above, and plate reading is started using two matched plate readers.

[5] = Precision measurements of pKa-values by pH titration; assay type: physicochemical; conditions: titrated with 100 mM KOH, six titrations, 25° C., ionic-strength 0.10 unless otherwise specified (b6); for Meas. pKa: 10 mM buffer, 80 mM KCl
Protocol: High purity analytical quality reagents are used in these studies: potassium chloride, potassium hydroxide, primary standard potassium acid phthalate (KAP, Baker), 18 meg-ohm deionized doubly-distilled water (CO2-free). […] They are dried in a vacuum oven at 50° C. for 18-24 hours and stored in a glass desiccator over P2O5. The only remaining impurities are inert water/solvent and traces of residual HCl or HBr. Most buffers are stable in atmospheric air; a few are somewhat hygroscopic. During the weighing of the buffer compounds, care is taken to prevent or minimize absorption of atmospheric moisture. Solutions containing 10 mM buffer and 80 mM KCl are carefully prepared using degassed, deionized water and standardized volumetric flasks. Six independent pH titrations are carried out for each buffer compound using 100 mM carbonate-free KOH that is carefully standardized against KAP.
The titrator is controlled and data collected by LabX Titration software, version 2.5. The titration cell is thermostatically controlled at 10.00±0.05° C., 25.00±0.05° C. or 40.00±±0.05° C. Temperatures are measured using a NIST-traceable mercury thermometer. Titrations are adjusted so that the endpoint is close to 5 mL delivery point of the burette. Incremental titrations are carried out with increment volume of 100 μl and with continuous stirring; the system is allowed to settle after each incremental addition (10-30 sec) before a reading is recorded. Accurate, NIST-traceable buffers (±0.001 pH unit) with accurately known values at 2, 4, 7, 10, 12 in the temperature range 10-40° C. are used (Oakton Instruments, Vernon Hills, Ill.). The electrode is calibrated at pH=2, 4, 10 and 12. The pH=7 buffer is independently measured. If the pH=7 measurement is accurate to ±0.002 pH unit, a titration is carried out; if not, the calibration is repeated. A pH calibration is carried out before each titration experiment. […]

[6] = tested on: Pseudomonas fluorescens ATCC 19020; test: Microbial growth-inhibition assay, P. fluorescens; assay type: cell-based; conditions: 30° C., PM broth
Protocol: as §1, with “For each medium, six bottles of sterile media are prepared, one for each buffer concentration (0, 30, 60, 120, 270, 600 mM) so that when each is diluted in the plate, the desired concentrations will be obtained. The media components (see below), added buffer and water are mixed, and the pH is adjusted to the proper value.” left out
Based upon prior experience with these organisms, a series of microbial growth measurements are carried out to determine optimal growth conditions. Four different media compositions unique to each organism each at four pH values (6.0, 6.5, 7.0, 7.5) are measured at three temperatures (23° C., 30° C., 37° C.). […]
as §2, with “Microbial counting is carried out in the usual fashion by using serial dilutions followed by plate counting. Each culture is diluted and plated three times, and the values are averaged.” left out

[7] = single value, read-out: Est. pKa
[8] = relative to trimethylamine, water at 25° C., μ=0.1, approximate numbers
[9] = HEPES, buffer combinations table

pKa of buffer in cationic/anionic buffer combinations [1]: 9.4
Compound: O=S(=O)(O)CCNC1CCCCC1 [CHES (H+)]

pKa [2, 7]: ~8.7
Compound: CCN(CC)CCC[N+](C)(CC)CC [Compound 30a]

Est. pKa ([2]; single value): ~11.1
Compound: CN1CCN(C)C1=NCC[N+](C)(C)C.Cl.[Cl-] [Compound 77, N(2-(1′,3′-dimethylimidazoline-2′-iminato)ethyl)trimethyl-ammonium chloride hydrochloride]

Change in pKa of Me2N— [3, 8]: ~−3.7 log K units
Compound: CN(C)CC[N+](C)(C)C [n = 2 (—CH2CH2—)]

Est. pKa ([2]; single value): ~6.1
Compound: CN(CCC[N+](C)(CCS(=O)(=O)[O-])CC(O)C[N+](C)(C)Cc1ccccc1)CCS(=O)(=O)[O-] (centres unmarked) [Compound 81, 1-benzyl-1,1,5,9-tetramethyl-3-hydroxy-5,9-bis(2-sulfoethyl)-1,5,9-triazanonane, di-inner salt]

Compound: CN(C)CC(O)C[N+](C)(C)C (centres unmarked) [n = 3 (—CH2CH(OH)CH2—)]
Change in pKa of Me2N— [3, 8]: ~−1.9 log K units

Change in pKa of Me2N— [3, 8]: ~−1.3 log K units
Compound: CN(C)CC=CC[N+](C)(C)C [n = 4 (trans —CH2CH═CHCH2—)]

pKa [2, 7]: ~6.7
Compound: CCN(CC)CC[N+](C)(CC)CC [Compound 28a]

Meas. pKa [5]: 8.410
pKa quoted in comparison of buffers with similar pKa values [1]: 8.4
Compound: O=S(=O)(O)CCCNC(CO)(CO)CO [TAPS]
comparative growth behaviour between buffers [4]: consistently the best of all eight buffers tested; also recorded: is better than DEGA
order of growth inhibition at higher concentrations [4]: TRIS>MES>TAPS

Change in pKa of Me2N— [3, 8]: ~−5.5 log K units
Compound: CN1CC[N+](C)(C)CC1 [N,N′,N′-Me3-Piperazinium^+]

pKa ([2]; wide-range buffer, higher pKa, read-out: Est. pKa, second of two values): ~8
pKa ([2]; wide-range buffer, lower pKa, read-out: Est. pKa, first of two values): ~6.5
Compound: CN(C)CC(O)C[N+](C)(CCCN(C)CCS(=O)(=O)O)CCS(=O)(=O)[O-] (centres unmarked) [Compound 59]

pKa of buffer in cationic/anionic buffer combinations [1]: 7.5
Compound: O=S(=O)(O)CCNC(CO)(CO)CO [TES (H+)]

Compound: NC(CO)(CO)CO [TRIS]
comparative growth behaviour between buffers [4]: DIMEGA (7.9) is better than TRIS
order of growth inhibition at higher concentrations [4]: TRIS>MES>TAPS
comparative growth of Pseudomonas [6]: all 5 cationic buffers being better than TRIS

Compound: CN(C)CC(O)C[N+](C)(C)C.[Cl-] (centres unmarked) [Compound 8]
comparative growth behaviour between buffers [4]: is better than TRIS
pKa quoted in comparison of buffers with similar pKa values [1]: 7.9
comparative growth of Pseudomonas [6]: DEAGA and MEAGA are clearly better than DIMEGA and DEGA

Change in pKa of Me2N— [3, 8]: ~−0.9 log K units
Compound: CN(C)CCCC[N+](C)(C)C [n = 4 (—CH2(CH2)2CH2—)]

Compound: C[N+]12CCN(CC1)CC2 [N-Me-Diazabicyclo[2.2.2]octane^+]
Change in pKa of Me2N— [3]: ~−6.7 log K units

pKa [2, 7]: ~5.8
Compound: C[N+](C)(C)CC(O)CNC(CO)(CO)CO (centres unmarked) [Compound 19a]

Change in pKa of Me2N— [3, 8]: ~−0.5 log K units
Compound: CN(C)CCCCC[N+](C)(C)C [n = 5 (—CH2(CH2)3CH2—)]

Meas. pKa [5]: 7.099
Compound: O=S(=O)(O)CCCN1CCOCC1 [MOPS]

Compound: C[N+](C)(C)CC(O)CC(=O)[O-] (centres unmarked) [Carnitine HCl]
pKa ([5]; aqueous solution of 10 mM buffer and 80 mM KCl, read-out: Meas. pKa): 3.83

Change in pKa of Me2N— [3, 8]: ~−1.1 log K units
Compound: CN(C)CC(O)C(O)C[N+](C)(C)C (centres unmarked) [n = 4 (—CH2CH(OH)CH(OH)CH2—)]

Compound: C[N+](C)(C)CC(O)CN(CCO)CCCS(=O)(=O)[O-] (centres unmarked) [Compound 51, N-(2-hydroxy-3-trimethylammoniumpropyl)-N-(2-hydroxyethyl)homotaurine inner salt]
Est. pKa ([2]; single value): ~6.4

hydrolytic stability [3]: Limited hydrolytic stability
Change in pKa of Me2N— [3, 8]: ~−10.5 log K units
Compound: CN(C)C[N+](C)(C)C [n = 1* (—CH2—)]

Compound: O=S(=O)(O)CCN1CCN(CCO)CC1 [HEPES]
pKa1 [1, 9]: 3.0
pKa2 [1, 9]: 7.5

pKa [1]: 9
Compound: OB(O)O [Boric Acid]

Compound: CN(C)CCC[N+](C)(C)C [n = 3 (—CH2CH2CH2—)]
Change in pKa of Me2N— [3, 8]: ~−1.7 log K units

comparative growth behaviour between buffers [4]: about the same behavior
Compound: O=S(=O)(O)CCN1CCOCC1 [MES]

Change in pKa of Me2N— [3, 8]: ~−0.3 log K units
Compound: CN(C)CCCCCC[N+](C)(C)C [n = 6 (—CH2(CH2)4CH2—)]

Est. pKa ([2]; single value): ~5.5
Compound: CN(CCCS(=O)(=O)O)CC[N+](C)(C)CCCS(=O)(=O)[O-] [Compound 66, N,N′,N′-trimethyl-N,N′-bis(3-sulfopropyl)ethylenediammonium di-inner salt]

Compound: C[N+](C)(C)CC(O)CNCCO.Cl.[Cl-] (centres unmarked) [Compound 78a, N-(3-trimethylammonium-2-hydroxypropyl)ethanolamine chloride hydrochloride]
Est. pKa ([2]; single value): ~7.8

pKa [2, 7]: ~10.1
Compound: CCN(CC)CCCCCC[N+](C)(CC)CC [Compound 34a]

Compound: CN(C)CCC[N+](C)(C)C.Cl.[Cl-] [Compound 29a, (3-trimethylammoniumpropyl) dimethylamine chloride hydrochloride]
Est. pKa ([2]; single value): ~8.1

Est. pKa, second of two values ([2]; wide-range buffer, higher pKa): ~8.2
Est. pKa, first of two values ([2]; wide-range buffer, lower pKa): ~6.8
Compound: CN(C)CCC[N+](C)(C)CCCP(=O)([O-])O [Compound 60, N,N,N′,N′-tetramethyl-N-(3-phosphonopropyl)-1,3-propanediammonium di-Inner salt]

Compound: CCN(C(C)C)C1CC[N+](CC)(CC)CC1 [Compound 74a]
pKa [2, 7]: ~7.4

Compound: Br.CN(C)C(=NCCC[N+](C)(C)C)N(C)C.[Br-] [Compound 76, 2-(3-trimethylammoniumpropyl)-1,1,3,3-tetramethylguanidine bromide hydrobromide]
Est. pKa ([2]; single value): ~12.9

Change in pKa of Me2N— [3, 8]: ~−3.6 log K units
Compound: CN1CCC[N+](C)(C)CC1 [N,N′,N′-Me3-Homopiperazinium^+]

Est. pKa ([2]; single value): ~8.1
Compound: Br.CCOP(=O)(CCC[N+](C)(C)CCCN(C)C)OCC.[Br-] [Compound 79a, N,N,N′,N′-tetramethyl-N-(3-diethylphosphonopropyl)-1,3-propanediamine diethyl ester bromide•hydrobromide]

Est. pKa ([2]; single value): ~8.1
Compound: CN(C)CCC[N+](C)(C)CCCS(=O)(=O)[O-] [Compound 57, N,N,N′,N′-tetramethyl-N-(3-sulfopropyl)-1,3-propanediamine Inner salt]

Compound: CCN(CC)CC(O)C[N+](C)(C)C.[Cl-] (centres unmarked) [Compound 10, N-(2-hydroxy-3-trimethylammonium-propyl)diethylamine chloride]
comparative growth behaviour between buffers [4]: TAPS (8.4) is better than DEGA
pKa quoted in comparison of buffers with similar pKa values [1]: 8.5
comparative growth of Pseudomonas [6]: DEAGA and MEAGA are clearly better than DIMEGA and DEGA

pKa [1]: 3.3
Compound: COCC(=O)O [Methoxyacetic Acid]

pKa [2, 7]: ~5.2
Compound: CN(CCO)CC[N+](C)(C)CCO [Compound 20a]

Est. pKa, second of two values ([2]; wide-range buffer, higher pKa): ~8.0
Est. pKa, first of two values ([2]; wide-range buffer, lower pKa): ~6.5
Compound: 1,1,5,9-tetramethyl-2-hydroxy-5,9-bis(2-sulfoethyl)-1,5,9-triazanonane di-inner salt [Compound 82]
